Assay results reported in US20090299044A1 (priority 2006, published 2009).
Bridge positions count the residues as written; N and C are the ends. Peptide text beside a SMILES is read from it.

Experiments:
human Kv1.1 (HEK293) = target: T1, human Kv1.1 (HEK293) (Homo sapiens, UniProt Q09470); experiment: cell-based
T1 construct: expressed in transfected cells; host or cells: HEK293

human Kv1.3 (CHO) = target: T2, human Kv1.3 (CHO) (Homo sapiens, UniProt P22001); experiment: cell-based
T2 construct: expressed in transfected cells; host or cells: CHO
T2 sequence (P22001 whole entry): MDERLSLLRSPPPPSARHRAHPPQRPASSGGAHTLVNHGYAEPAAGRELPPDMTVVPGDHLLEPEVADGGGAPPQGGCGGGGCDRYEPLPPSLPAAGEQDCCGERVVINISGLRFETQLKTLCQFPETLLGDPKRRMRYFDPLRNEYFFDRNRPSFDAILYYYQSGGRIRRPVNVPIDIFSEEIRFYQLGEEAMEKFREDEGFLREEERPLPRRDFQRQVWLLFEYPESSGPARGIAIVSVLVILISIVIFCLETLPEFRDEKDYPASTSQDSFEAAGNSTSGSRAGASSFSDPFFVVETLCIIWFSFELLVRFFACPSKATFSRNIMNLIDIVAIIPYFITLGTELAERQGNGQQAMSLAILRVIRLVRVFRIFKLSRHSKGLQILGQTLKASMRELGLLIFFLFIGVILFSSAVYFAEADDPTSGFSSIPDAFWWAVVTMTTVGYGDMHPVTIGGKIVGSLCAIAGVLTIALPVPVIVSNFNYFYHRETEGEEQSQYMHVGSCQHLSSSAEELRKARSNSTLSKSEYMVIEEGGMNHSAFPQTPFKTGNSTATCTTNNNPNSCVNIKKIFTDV

T1 sequence (Q09470 whole entry): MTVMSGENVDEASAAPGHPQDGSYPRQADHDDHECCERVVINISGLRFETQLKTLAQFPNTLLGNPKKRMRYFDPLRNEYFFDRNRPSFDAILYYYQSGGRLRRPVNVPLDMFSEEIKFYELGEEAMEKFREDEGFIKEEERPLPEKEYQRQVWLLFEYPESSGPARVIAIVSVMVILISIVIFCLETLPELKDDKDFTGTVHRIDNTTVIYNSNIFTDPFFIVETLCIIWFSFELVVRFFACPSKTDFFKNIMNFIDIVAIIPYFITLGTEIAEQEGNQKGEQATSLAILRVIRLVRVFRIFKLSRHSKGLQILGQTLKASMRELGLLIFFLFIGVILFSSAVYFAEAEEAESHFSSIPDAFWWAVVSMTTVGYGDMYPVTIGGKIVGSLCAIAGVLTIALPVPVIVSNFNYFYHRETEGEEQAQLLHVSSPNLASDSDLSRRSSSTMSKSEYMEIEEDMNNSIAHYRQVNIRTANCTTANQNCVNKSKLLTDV

SMILES | IC50 (human Kv1.1 (HEK293)) | IC50 (human Kv1.3 (CHO))
CC[C@H](C)[C@@H]1NC(=O)[C@H](CCCCN)NC(=O)[C@@H](NC(=O)[C@H](CCCCN)NC(=O)[C@@H](NC(=O)[C@H](CC(N)=O)NC(=O)[C@@H](NC(=O)[C@@H](NC(=O)[C@@H](NC(=O)CN)C(C)C)[C@@H](C)CC)[C@@H](C)CC)C(C)C)CSSC[C@@H]2NC(=O)[C@H](CCCCN)NC(=O)[C@H](CCCNC(=N)N)NC(=O)[C@H](Cc3ccccc3)NC(=O)[C@H](CCCNC(=N)N)NC(=O)[C@H](CCSC)NC(=O)CNC(=O)[C@H](C)NC(=O)[C@H](CCCCN)NC(=O)[C@H](CCCCN)NC(=O)[C@@H]3CSSC[C@@H](C(=O)N[C@H](C(=O)N4CCC[C@H]4C(=O)N[C@@H](CCCCN)C(=O)O)[C@@H](C)O)NC(=O)[C@H](Cc4c[nH]cn4)NC(=O)[C@H](CSSC[C@H](NC(=O)[C@H](CCC(N)=O)NC(=O)[C@H](CCCNC(=N)N)NC(=O)[C@H](CO)NC1=O)C(=O)N[C@@H](CC(C)C)C(=O)N[C@@H](CCC(=O)O)C(=O)N1CCC[C@H]1C(=O)N3)NC(=O)[C@H](CCCCN)NC(=O)CNC(=O)[C@H](CC(N)=O)NC(=O)[C@H](CCSC)NC2=O [G26R] (H-GVIINVKCKISRQCLEPCKKAGMRFRKCMNGKCHCTPK-OH; disulfide 8-28, 14-33, 18-35) | > 3.33 nM | > 3.33 nM
CC[C@H](C)[C@@H]1NC(=O)[C@H](C)NC(=O)[C@@H](NC(=O)[C@H](CCCCN)NC(=O)[C@@H](NC(=O)[C@H](CC(N)=O)NC(=O)[C@@H](NC(=O)[C@@H](NC(=O)[C@@H](NC(=O)CN)C(C)C)[C@@H](C)CC)[C@@H](C)CC)C(C)C)CSSC[C@@H]2NC(=O)[C@H](CCCCN)NC(=O)CNC(=O)[C@H](Cc3ccccc3)NC(=O)[C@H](CCCNC(=N)N)NC(=O)[C@H](CCSC)NC(=O)CNC(=O)[C@H](C)NC(=O)[C@H](CCCCN)NC(=O)[C@H](CCCCN)NC(=O)[C@@H]3CSSC[C@@H](C(=O)N[C@H](C(=O)N4CCC[C@H]4C(=O)N[C@@H](CCCCN)C(=O)O)[C@@H](C)O)NC(=O)[C@H](Cc4c[nH]cn4)NC(=O)[C@H](CSSC[C@H](NC(=O)[C@H](CCC(N)=O)NC(=O)[C@H](CCCNC(=N)N)NC(=O)[C@H](CO)NC1=O)C(=O)N[C@@H](CC(C)C)C(=O)N[C@@H](CCC(=O)O)C(=O)N1CCC[C@H]1C(=O)N3)NC(=O)[C@H](CCCCN)NC(=O)CNC(=O)[C@H](CC(N)=O)NC(=O)[C@H](CCSC)NC2=O [K9A] (H-GVIINVKCAISRQCLEPCKKAGMRFGKCMNGKCHCTPK-OH; disulfide 8-28, 14-33, 18-35) | 0.0406 nM | 0.166 nM
CC[C@H](C)[C@@H]1NC(=O)[C@H](CCCCN)NC(=O)[C@@H](NC(=O)[C@H](CCCCN)NC(=O)[C@@H](NC(=O)[C@H](CC(N)=O)NC(=O)[C@H](CCCNC(=N)N)NC(=O)[C@@H](NC(=O)[C@@H](NC(=O)CN)C(C)C)[C@@H](C)CC)C(C)C)CSSC[C@@H]2NC(=O)[C@H](CCCCN)NC(=O)CNC(=O)[C@H](Cc3ccccc3)NC(=O)[C@H](CCCNC(=N)N)NC(=O)[C@H](CCSC)NC(=O)CNC(=O)[C@H](C)NC(=O)[C@H](CCCCN)NC(=O)[C@H](CCCCN)NC(=O)[C@@H]3CSSC[C@@H](C(=O)N[C@H](C(=O)N4CCC[C@H]4C(=O)N[C@@H](CCCCN)C(=O)O)[C@@H](C)O)NC(=O)[C@H](Cc4c[nH]cn4)NC(=O)[C@H](CSSC[C@H](NC(=O)[C@H](CCC(N)=O)NC(=O)[C@H](CCCNC(=N)N)NC(=O)[C@H](CO)NC1=O)C(=O)N[C@@H](CC(C)C)C(=O)N[C@@H](CCC(=O)O)C(=O)N1CCC[C@H]1C(=O)N3)NC(=O)[C@H](CCCCN)NC(=O)CNC(=O)[C@H](CC(N)=O)NC(=O)[C@H](CCSC)NC2=O [I4R] (H-GVIRNVKCKISRQCLEPCKKAGMRFGKCMNGKCHCTPK-OH; disulfide 8-28, 14-33, 18-35) | 0.00192 nM | 0.0104 nM
CC[C@H](C)[C@@H]1NC(=O)[C@H](CCCCN)NC(=O)[C@@H](NC(=O)[C@H](CCCCN)NC(=O)[C@@H](NC(=O)[C@H](CC(N)=O)NC(=O)[C@@H](NC(=O)[C@@H](NC(=O)[C@@H](NC(=O)CN)C(C)C)[C@@H](C)CC)[C@@H](C)CC)C(C)C)CSSC[C@@H]2NC(=O)[C@H](CCCCN)NC(=O)CNC(=O)[C@H](Cc3ccccc3)NC(=O)[C@H](C)NC(=O)[C@H](CCSC)NC(=O)CNC(=O)[C@H](C)NC(=O)[C@H](CCCCN)NC(=O)[C@H](CCCCN)NC(=O)[C@@H]3CSSC[C@@H](C(=O)N[C@H](C(=O)N4CCC[C@H]4C(=O)N[C@@H](CCCCN)C(=O)O)[C@@H](C)O)NC(=O)[C@H](Cc4c[nH]cn4)NC(=O)[C@H](CSSC[C@H](NC(=O)[C@H](CCC(N)=O)NC(=O)[C@H](CCCNC(=N)N)NC(=O)[C@H](CO)NC1=O)C(=O)N[C@@H](CC(C)C)C(=O)N[C@@H](CCC(=O)O)C(=O)N1CCC[C@H]1C(=O)N3)NC(=O)[C@H](CCCCN)NC(=O)CNC(=O)[C@H](CC(N)=O)NC(=O)[C@H](CCSC)NC2=O [R24A] (H-GVIINVKCKISRQCLEPCKKAGMAFGKCMNGKCHCTPK-OH; disulfide 8-28, 14-33, 18-35) | 1.89 nM | > 3 nM
CC[C@H](C)[C@@H]1NC(=O)[C@H](CCCCN)NC(=O)[C@@H](NC(=O)[C@H](CCCCN)NC(=O)[C@@H](NC(=O)[C@H](CC(N)=O)NC(=O)[C@@H](NC(=O)[C@@H](NC(=O)[C@@H](NC(=O)CN)C(C)C)[C@@H](C)CC)[C@@H](C)CC)C(C)C)CSSC[C@@H]2NC(=O)[C@H](CCCCN)NC(=O)CNC(=O)[C@H](Cc3ccccc3)NC(=O)[C@H](CCCNC(=N)N)NC(=O)[C@H](CCSC)NC(=O)[C@H](CCCNC(=N)N)NC(=O)[C@H](C)NC(=O)[C@H](CCCCN)NC(=O)[C@H](CCCCN)NC(=O)[C@@H]3CSSC[C@@H](C(=O)N[C@H](C(=O)N4CCC[C@H]4C(=O)N[C@@H](CCCCN)C(=O)O)[C@@H](C)O)NC(=O)[C@H](Cc4c[nH]cn4)NC(=O)[C@H](CSSC[C@H](NC(=O)[C@H](CCC(N)=O)NC(=O)[C@H](CCCNC(=N)N)NC(=O)[C@H](CO)NC1=O)C(=O)N[C@@H](CC(C)C)C(=O)N[C@@H](CCC(=O)O)C(=O)N1CCC[C@H]1C(=O)N3)NC(=O)[C@H](CCCCN)NC(=O)CNC(=O)[C@H](CC(N)=O)NC(=O)[C@H](CCSC)NC2=O [G22R] (H-GVIINVKCKISRQCLEPCKKARMRFGKCMNGKCHCTPK-OH; disulfide 8-28, 14-33, 18-35) | 0.00349 nM | 0.0237 nM
CC[C@H](C)[C@@H]1NC(=O)[C@H](CCCCN)NC(=O)[C@@H](NC(=O)[C@H](CCCCN)NC(=O)[C@@H](NC(=O)[C@H](CC(N)=O)NC(=O)[C@@H](NC(=O)[C@@H](NC(=O)[C@@H](NC(=O)CN)C(C)C)[C@@H](C)CC)[C@@H](C)CC)C(C)C)CSSC[C@@H]2NC(=O)[C@H](CCCCN)NC(=O)CNC(=O)[C@H](Cc3ccccc3)NC(=O)[C@H](CCCNC(=N)N)NC(=O)[C@H](CCSC)NC(=O)CNC(=O)[C@H](C)NC(=O)[C@H](CCCCN)NC(=O)[C@H](CCCCN)NC(=O)[C@@H]3CSSC[C@@H](C(=O)N[C@H](C(=O)N4CCC[C@H]4C(=O)N[C@@H](CCCCN)C(=O)O)[C@@H](C)O)NC(=O)[C@H](Cc4c[nH]cn4)NC(=O)[C@H](CSSC[C@H](NC(=O)[C@H](CCC(N)=O)NC(=O)[C@H](CCCNC(=N)N)NC(=O)[C@H](CO)NC1=O)C(=O)N[C@@H](CCCNC(=N)N)C(=O)N[C@@H](CCC(=O)O)C(=O)N1CCC[C@H]1C(=O)N3)NC(=O)[C@H](CCCCN)NC(=O)CNC(=O)[C@H](CC(N)=O)NC(=O)[C@H](CCSC)NC2=O [L15R] (H-GVIINVKCKISRQCREPCKKAGMRFGKCMNGKCHCTPK-OH; disulfide 8-28, 14-33, 18-35) | 0.00216 nM | 0.0137 nM
CC[C@H](C)[C@@H]1NC(=O)[C@H](CCCCN)NC(=O)[C@@H](NC(=O)[C@H](CCCCN)NC(=O)[C@H](C)NC(=O)[C@H](CC(N)=O)NC(=O)[C@@H](NC(=O)[C@@H](NC(=O)[C@@H](NC(=O)CN)C(C)C)[C@@H](C)CC)[C@@H](C)CC)CSSC[C@@H]2NC(=O)[C@H](CCCCN)NC(=O)CNC(=O)[C@H](Cc3ccccc3)NC(=O)[C@H](CCCNC(=N)N)NC(=O)[C@H](CCSC)NC(=O)CNC(=O)[C@H](C)NC(=O)[C@H](CCCCN)NC(=O)[C@H](CCCCN)NC(=O)[C@@H]3CSSC[C@@H](C(=O)N[C@H](C(=O)N4CCC[C@H]4C(=O)N[C@@H](CCCCN)C(=O)O)[C@@H](C)O)NC(=O)[C@H](Cc4c[nH]cn4)NC(=O)[C@H](CSSC[C@H](NC(=O)[C@H](CCC(N)=O)NC(=O)[C@H](CCCNC(=N)N)NC(=O)[C@H](CO)NC1=O)C(=O)N[C@@H](CC(C)C)C(=O)N[C@@H](CCC(=O)O)C(=O)N1CCC[C@H]1C(=O)N3)NC(=O)[C@H](CCCCN)NC(=O)CNC(=O)[C@H](CC(N)=O)NC(=O)[C@H](CCSC)NC2=O [V6A] (H-GVIINAKCKISRQCLEPCKKAGMRFGKCMNGKCHCTPK-OH; disulfide 8-28, 14-33, 18-35) | 0.0128 nM | 0.174 nM
CC[C@H](C)[C@H](NC(=O)[C@@H](NC(=O)CN)C(C)C)C(=O)N[C@H](C(=O)N[C@@H](CC(N)=O)C(=O)N[C@H](C(=O)N[C@@H](CCCCN)C(=O)N[C@H]1CSSC[C@@H]2NC(=O)[C@H](CCCCN)NC(=O)CNC(=O)[C@H](Cc3ccccc3)NC(=O)[C@H](CCCNC(=N)N)NC(=O)[C@H](CCSC)NC(=O)CNC(=O)[C@H](C)NC(=O)[C@H](CCCCN)NC(=O)[C@H](CCCCN)NC(=O)[C@@H]3CSSC[C@@H](C(=O)N[C@H](C(=O)N4CCC[C@H]4C(=O)N[C@@H](CCCCN)C(=O)O)[C@@H](C)O)NC(=O)[C@H](Cc4c[nH]cn4)NC(=O)[C@H](CSSC[C@H](NC(=O)[C@H](CCC(N)=O)NC(=O)[C@H](CCCNC(=N)N)NC(=O)[C@H](CO)NC(=O)[C@H](C)NC(=O)[C@H](CCCCN)NC1=O)C(=O)N[C@@H](CC(C)C)C(=O)N[C@@H](CCC(=O)O)C(=O)N1CCC[C@H]1C(=O)N3)NC(=O)[C@H](CCCCN)NC(=O)CNC(=O)[C@H](CC(N)=O)NC(=O)[C@H](CCSC)NC2=O)C(C)C)[C@@H](C)CC [I10A] (H-GVIINVKCKASRQCLEPCKKAGMRFGKCMNGKCHCTPK-OH; disulfide 8-28, 14-33, 18-35) | 0.00446 nM | 0.0912 nM
